Assay [1] addresses T1, Nox5 (Homo sapiens, UniProt Q96PH1).
T1 sequence (Q96PH1 1-765): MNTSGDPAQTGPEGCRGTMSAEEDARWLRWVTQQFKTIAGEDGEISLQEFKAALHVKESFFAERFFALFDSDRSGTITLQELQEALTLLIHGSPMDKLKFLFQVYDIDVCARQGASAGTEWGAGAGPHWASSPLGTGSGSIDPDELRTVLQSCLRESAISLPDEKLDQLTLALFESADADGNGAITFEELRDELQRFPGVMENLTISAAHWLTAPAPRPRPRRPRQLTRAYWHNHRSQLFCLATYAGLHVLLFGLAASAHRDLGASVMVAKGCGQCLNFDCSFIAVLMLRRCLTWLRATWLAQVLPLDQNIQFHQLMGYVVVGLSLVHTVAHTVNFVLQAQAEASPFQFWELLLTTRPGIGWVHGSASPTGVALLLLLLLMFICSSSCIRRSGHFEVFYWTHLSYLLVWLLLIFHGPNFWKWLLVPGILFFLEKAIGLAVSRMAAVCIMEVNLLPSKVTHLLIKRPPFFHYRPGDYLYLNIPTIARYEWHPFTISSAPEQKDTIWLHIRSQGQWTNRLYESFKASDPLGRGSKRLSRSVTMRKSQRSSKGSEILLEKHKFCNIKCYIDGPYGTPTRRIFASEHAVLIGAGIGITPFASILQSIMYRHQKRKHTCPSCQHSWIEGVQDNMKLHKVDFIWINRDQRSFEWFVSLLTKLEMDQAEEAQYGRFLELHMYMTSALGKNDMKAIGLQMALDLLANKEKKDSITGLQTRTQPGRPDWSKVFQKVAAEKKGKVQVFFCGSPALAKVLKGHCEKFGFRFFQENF
As to the kind of experiment: chemiluminescence of ROS in ionomycin-stimulated Nox5-transfected HEK cells. The class given is cell-based. The text has this: chemiluminescence of ROS in ionomycin-stimulated Nox5-transfected HEK cells on Nox5 | stably transfected Nox5 overexpressing HEK cells were stimulated with ionomycin. This activity could be quenched completely by DPI

In assay [2] the target is T2, NADPH oxidase 4 (Nox4) (Homo sapiens, UniProt Q9NPH5).
T2 sequence (Q9NPH5 1-578): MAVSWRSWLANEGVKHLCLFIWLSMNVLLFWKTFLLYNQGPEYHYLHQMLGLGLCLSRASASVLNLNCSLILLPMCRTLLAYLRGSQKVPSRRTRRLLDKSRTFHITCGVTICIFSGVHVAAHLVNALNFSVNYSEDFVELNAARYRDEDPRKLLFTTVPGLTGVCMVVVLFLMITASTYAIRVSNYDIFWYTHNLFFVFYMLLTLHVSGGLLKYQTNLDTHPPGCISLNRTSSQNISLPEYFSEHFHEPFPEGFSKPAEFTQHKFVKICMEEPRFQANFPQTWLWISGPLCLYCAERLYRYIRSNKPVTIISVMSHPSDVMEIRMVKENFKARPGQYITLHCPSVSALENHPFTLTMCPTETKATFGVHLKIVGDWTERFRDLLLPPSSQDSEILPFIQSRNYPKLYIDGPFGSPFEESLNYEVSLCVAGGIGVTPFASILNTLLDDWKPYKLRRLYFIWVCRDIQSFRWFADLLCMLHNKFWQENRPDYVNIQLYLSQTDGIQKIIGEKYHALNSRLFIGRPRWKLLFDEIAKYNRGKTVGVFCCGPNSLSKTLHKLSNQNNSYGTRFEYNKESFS
Kind of assay: luminol chemiluminescence of ROS in HEK cells expressing Nox4, normalized to pcDNA cells; mitochondrial ROS scavenging counterscreen. It counts as cell-based. On the technique in general: Counterscreens check selectivity or assay interference.

For `c1ccc2c(c1)[I+]c1ccccc1-2` [DPI, diphenyleneiodonium], the “chemiluminescence of ROS in ionomycin-stimulated Nox5-transfected HEK cells” value in assay [1] is given as “stably transfected Nox5 overexpressing HEK cells were stimulated with ionomycin. This activity could be quenched completely by DPI”.
`O=C(/C=C/c1ccc(O)c(O)c1)O[C@H](Cc1ccc(O)c(O)c1)C(=O)O` [RA, rosmarinic acid] had an IC50 in assay [2] of 1000 nM.

As a reminder, the IC50 is the concentration that inhibits the measured activity by half.

These data come from publication PMC6017630, “Identification of the NADPH Oxidase 4 Inhibiting Principle of Lycopus europaeus” (Molecules : A Journal of Synthetic Chemistry and Natural …, 2018).
